Blank lines part the entries; values can stand above or below the compound they belong to. Calls of active or inactive are those of the source.
What was measured:
[1] = molecular target: Dual specificity protein phosphatase 3 (Homo sapiens, UniProt P51452); assay: inhibition constants for human DUSP3 – biochemical, colorimetric, SAR follow-up (AID 2004)
[2] = molecular target: Lysosomal acid glucosylceramidase (Homo sapiens, UniProt P04062); assay: Dose response cell-based high throughput screening assay to identify enhancers of beta-glucosidase activity. [Related pubchem assays: 784 ]; assay type: functional
Chaperone protein dnaK = Chaperone protein dnaK (Escherichia coli, UniProt C3TRK2); assay: E. coli DnaK binders, calorimetric Kd – biophysical, isothermal titration calorimetry, beta-domain, full-length DnaK, orthogonal assay for DnaK modulator project, SAR follow-up (AID 1495)
Sequence of Chaperone protein dnaK (C3TRK2 whole entry): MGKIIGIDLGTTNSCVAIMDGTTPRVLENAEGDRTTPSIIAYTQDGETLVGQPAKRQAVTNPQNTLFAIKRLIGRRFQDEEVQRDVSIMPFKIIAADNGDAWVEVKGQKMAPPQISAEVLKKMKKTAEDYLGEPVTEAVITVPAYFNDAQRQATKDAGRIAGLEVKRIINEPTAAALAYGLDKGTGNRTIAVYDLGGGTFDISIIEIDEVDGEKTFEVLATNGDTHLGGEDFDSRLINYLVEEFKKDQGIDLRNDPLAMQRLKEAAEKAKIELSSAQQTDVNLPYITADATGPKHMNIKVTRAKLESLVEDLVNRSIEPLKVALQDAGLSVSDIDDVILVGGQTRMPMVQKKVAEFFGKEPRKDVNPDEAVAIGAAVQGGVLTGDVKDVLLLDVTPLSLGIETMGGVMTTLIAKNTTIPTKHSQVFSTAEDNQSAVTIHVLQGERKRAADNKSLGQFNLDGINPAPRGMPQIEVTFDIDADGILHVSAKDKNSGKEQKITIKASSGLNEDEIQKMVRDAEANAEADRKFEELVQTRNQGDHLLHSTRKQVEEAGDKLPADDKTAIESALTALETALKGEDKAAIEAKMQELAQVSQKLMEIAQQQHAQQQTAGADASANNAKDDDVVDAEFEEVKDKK

Bcl-2-like protein 1 = Bcl-2-like protein 1 (Homo sapiens, UniProt Q07817); assay: blockers of BCLXL peptide binding – biochemical, fluorescence polarization, 1536-well, selectivity assay for MCL1 inhibitor project, dose response (AID 2218)
Sequence of Bcl-2-like protein 1 (Q07817 whole entry): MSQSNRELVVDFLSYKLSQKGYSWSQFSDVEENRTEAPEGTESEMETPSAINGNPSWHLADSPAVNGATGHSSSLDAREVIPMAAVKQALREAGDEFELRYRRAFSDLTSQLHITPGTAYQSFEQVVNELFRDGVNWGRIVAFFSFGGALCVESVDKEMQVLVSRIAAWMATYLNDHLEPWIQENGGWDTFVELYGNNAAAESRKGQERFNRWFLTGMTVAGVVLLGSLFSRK

Procathepsin L = Procathepsin L (Homo sapiens, UniProt P07711)
Sequence of Procathepsin L (P07711 whole entry): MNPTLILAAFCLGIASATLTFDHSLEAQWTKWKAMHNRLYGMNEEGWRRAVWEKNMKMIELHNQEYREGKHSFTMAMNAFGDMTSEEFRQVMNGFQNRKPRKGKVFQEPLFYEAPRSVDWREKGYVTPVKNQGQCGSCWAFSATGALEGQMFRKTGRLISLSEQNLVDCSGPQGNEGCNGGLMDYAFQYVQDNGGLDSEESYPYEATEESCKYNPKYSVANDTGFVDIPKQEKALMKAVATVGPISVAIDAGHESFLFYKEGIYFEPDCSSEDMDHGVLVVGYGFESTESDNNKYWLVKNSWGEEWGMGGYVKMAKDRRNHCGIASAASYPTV

[3] = molecular target: Induced myeloid leukemia cell differentiation protein Mcl-1 (Homo sapiens, UniProt Q07820); assay: blockers of MCL1 binding to BIM peptide – biochemical, fluorescence polarization, BIM-BH3 peptide, 1536-well, dose response (AID 2217)
Aspartyl aminopeptidase = Aspartyl aminopeptidase (Plasmodium falciparum 3D7, UniProt Q8I2J3)
[4] = molecular target: Voltage-gated N-type calcium channel alpha-1B subunit/Amyloid beta A4 precursor protein-binding family A member 1 (Homo sapiens, UniProt Q00975+Q02410); assay: disruptors of Mint-PDZ/N-type channel peptide interaction – biochemical, HTRF, set 2, SAR follow-up (AID 434980); assay type: functional
Sequence of Voltage-gated N-type calcium channel alpha-1B subunit/Amyloid beta A4 precursor protein-binding family A member 1 (Q00975 whole entry): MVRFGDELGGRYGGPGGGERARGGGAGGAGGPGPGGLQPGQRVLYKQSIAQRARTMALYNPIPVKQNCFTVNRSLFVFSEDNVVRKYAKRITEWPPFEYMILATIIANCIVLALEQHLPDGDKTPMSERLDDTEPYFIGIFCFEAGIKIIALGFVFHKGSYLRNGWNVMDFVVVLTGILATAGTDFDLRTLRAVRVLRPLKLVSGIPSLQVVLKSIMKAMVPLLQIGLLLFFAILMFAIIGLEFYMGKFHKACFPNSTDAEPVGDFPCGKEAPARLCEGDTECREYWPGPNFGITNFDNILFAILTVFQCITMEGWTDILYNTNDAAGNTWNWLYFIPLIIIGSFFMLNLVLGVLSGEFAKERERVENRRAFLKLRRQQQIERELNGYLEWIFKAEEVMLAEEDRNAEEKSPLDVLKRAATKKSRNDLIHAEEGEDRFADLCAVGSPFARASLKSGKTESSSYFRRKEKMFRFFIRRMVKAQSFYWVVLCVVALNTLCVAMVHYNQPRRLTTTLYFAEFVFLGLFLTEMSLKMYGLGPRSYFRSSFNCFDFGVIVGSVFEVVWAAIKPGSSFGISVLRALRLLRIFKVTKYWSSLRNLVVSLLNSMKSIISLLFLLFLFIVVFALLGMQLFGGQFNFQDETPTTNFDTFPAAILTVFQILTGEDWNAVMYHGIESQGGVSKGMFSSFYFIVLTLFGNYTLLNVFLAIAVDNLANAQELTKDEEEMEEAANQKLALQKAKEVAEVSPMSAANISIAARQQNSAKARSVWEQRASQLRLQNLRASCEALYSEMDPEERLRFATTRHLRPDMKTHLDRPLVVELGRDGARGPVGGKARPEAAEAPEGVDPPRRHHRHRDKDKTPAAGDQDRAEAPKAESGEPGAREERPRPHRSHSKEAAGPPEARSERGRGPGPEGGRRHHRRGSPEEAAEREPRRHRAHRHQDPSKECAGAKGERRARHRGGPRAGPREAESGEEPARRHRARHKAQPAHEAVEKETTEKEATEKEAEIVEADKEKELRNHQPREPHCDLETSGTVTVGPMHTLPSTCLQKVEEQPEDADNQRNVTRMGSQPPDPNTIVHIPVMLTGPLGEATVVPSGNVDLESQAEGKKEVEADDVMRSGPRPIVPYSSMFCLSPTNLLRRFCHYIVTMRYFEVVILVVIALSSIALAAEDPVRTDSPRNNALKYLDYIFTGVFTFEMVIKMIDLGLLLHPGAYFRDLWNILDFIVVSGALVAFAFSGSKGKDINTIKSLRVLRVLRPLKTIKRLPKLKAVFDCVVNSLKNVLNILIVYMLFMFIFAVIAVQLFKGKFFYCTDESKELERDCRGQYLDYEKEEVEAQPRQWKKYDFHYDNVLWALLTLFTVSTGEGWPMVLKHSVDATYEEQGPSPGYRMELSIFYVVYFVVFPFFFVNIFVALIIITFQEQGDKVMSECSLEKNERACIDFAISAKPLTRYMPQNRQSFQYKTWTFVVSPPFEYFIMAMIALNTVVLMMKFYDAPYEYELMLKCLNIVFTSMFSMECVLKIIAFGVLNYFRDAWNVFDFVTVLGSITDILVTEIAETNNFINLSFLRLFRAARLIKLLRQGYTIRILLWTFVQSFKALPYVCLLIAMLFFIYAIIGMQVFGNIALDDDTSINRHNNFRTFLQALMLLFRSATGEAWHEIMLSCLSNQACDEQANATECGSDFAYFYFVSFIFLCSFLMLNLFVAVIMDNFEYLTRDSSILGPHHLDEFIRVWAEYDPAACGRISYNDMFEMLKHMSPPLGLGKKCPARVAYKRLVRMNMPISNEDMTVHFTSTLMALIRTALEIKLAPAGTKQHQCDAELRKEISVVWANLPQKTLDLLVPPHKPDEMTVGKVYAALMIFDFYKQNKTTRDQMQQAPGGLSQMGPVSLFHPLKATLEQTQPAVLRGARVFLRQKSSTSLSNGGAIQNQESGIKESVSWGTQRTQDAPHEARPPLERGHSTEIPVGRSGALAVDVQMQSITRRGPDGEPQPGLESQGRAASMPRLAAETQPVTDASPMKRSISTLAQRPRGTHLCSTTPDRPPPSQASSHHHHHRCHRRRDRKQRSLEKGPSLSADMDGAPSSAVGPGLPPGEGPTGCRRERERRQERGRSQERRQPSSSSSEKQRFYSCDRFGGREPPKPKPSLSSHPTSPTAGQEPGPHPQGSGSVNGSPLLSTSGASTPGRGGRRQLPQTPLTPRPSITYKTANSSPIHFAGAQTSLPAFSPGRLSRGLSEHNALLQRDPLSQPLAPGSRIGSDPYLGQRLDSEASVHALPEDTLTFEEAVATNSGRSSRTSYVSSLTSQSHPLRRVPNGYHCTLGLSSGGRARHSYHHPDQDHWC
Sequence of Voltage-gated N-type calcium channel alpha-1B subunit/Amyloid beta A4 precursor protein-binding family A member 1 (Q02410 whole entry): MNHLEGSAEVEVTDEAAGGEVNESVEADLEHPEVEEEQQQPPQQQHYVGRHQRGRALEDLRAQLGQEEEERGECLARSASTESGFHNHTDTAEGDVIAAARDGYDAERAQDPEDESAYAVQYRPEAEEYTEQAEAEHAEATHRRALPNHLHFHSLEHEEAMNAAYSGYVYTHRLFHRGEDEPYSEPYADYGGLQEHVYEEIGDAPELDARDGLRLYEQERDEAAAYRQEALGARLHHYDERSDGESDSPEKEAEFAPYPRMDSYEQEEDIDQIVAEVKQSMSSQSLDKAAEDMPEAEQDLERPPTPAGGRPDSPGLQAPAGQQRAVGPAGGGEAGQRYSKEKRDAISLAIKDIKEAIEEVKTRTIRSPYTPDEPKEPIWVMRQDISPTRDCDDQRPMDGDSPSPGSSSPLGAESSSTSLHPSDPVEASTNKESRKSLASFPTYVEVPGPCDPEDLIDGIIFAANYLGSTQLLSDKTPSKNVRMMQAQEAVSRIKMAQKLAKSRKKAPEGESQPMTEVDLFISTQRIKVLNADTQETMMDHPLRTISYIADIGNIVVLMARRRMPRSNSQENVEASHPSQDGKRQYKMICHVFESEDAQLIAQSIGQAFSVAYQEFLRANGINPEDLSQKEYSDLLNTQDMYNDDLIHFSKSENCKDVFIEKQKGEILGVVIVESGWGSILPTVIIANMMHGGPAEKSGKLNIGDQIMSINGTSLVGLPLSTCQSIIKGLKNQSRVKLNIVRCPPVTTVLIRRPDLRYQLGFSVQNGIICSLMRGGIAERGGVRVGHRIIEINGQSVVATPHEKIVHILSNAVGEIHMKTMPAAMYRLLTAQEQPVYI

[5] = molecular target: Melanin-concentrating hormone receptor 1 (Homo sapiens, UniProt Q99705); assay: Fluorescence-based counterscreen for antagonists of the G-protein coupled receptor 7 (GPR7): cell-based high throughput dose response assay to identify antagonists of the melanin-concentrating hormone receptor 1 (MCHR1).; assay type: functional
Sequence of Melanin-concentrating hormone receptor 1 (Q99705 whole entry): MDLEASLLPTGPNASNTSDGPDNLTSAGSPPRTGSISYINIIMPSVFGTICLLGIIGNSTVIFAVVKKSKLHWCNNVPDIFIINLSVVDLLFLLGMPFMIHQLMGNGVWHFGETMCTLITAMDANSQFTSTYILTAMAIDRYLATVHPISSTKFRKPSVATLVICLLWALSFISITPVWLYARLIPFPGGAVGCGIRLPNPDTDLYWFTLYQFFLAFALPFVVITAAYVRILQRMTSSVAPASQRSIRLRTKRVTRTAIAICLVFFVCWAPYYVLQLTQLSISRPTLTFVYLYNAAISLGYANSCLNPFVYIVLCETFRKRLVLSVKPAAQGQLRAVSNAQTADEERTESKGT

Sequence of Dual specificity protein phosphatase 3 (P51452 whole entry): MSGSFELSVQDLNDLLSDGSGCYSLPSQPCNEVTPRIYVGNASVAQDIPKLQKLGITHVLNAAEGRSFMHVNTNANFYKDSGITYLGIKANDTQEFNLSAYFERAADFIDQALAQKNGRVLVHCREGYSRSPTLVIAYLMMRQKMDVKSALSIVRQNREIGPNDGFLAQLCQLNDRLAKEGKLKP

Compound: NC(=O)c1c(N)sc2c1CCCCCCCCCC2
Ki [1]: 39.8 µM (inactive)

Compound: O=C(NCc1cccc2ccccc12)c1cccs1
Kd (Chaperone protein dnaK): 1.7 µM (active)

Compound: CC(C)n1c(SCC(=O)Nc2nncs2)nnc1-c1ccco1
IC50 (Bcl-2-like protein 1): > 109 µM (not active)
IC50 (Procathepsin L): > 59.6 µM (not active)
IC50 [3]: 18.1 µM (not active)
IC50 (Aspartyl aminopeptidase): 4.68 µM (active)

Other lines, results leading:

EC50 [2]: > 10 µM (not active)
Compound: O=C(O)c1ccc2c(c1)C(c1ccccc1)OC2=O (centres undefined)

IC50 [4]: > 56.8 µM (inactive)
Compound: O=C(c1cc(-c2ccco2)nc2ccccc12)N1CCC(c2ccccc2)CC1

IC50 [5]: > 14.6 µM (not active)
Compound: CCN1CCN(C(=O)c2ccc3c(c2)N(Cc2ccc(C)cc2)CCS3)CC1

From ChEMBL document CHEMBL1201862, “PubChem BioAssay data set” (2004)
